Where two headings read alike, the source gives them in different places.
Experiments:
Assay type in all cases: cell-based, mouse
[1] = tested on: dissociated neurosphere cells; assay: Neurosphere formation in the presence of AC inhibitors; settings: 1,000 cells per well, 0.01 to 10 μM AC inhibitor, neurospheres counted, read-out: IC50 of inhibition of neurosphere formation
Procedure: Mouse brains harvested from E14.5 fetuses were digested with 0.25% trypsin/1mM EDTA solution for 30 minutes at 37° C. The tissues were triturated sequentially with a 10-mL pipette, a 1-mL pipette and a 0.2-mL pipette in medium containing 10% fetal bovine serum (FBS). The dissociated cells were washed 3 times with PBS by repeated resuspension and centrifugation, and filtered through a 40-μm strainer. The obtained single cells were plated in DMEM/F12 medium containing 10 ng/mL bFGF, 20 ng/mL EGF and B27 without vitamin A, and cultured for 7-10 days without changing the medium.
(§1) To assess the effects of CDy5 and AC inhibitors on neurosphere formation, dissociated neurosphere cells were plated in 12-well culture plates at a density of 1,000 cells per well and cultures in the presence of 2 μM or 4 μM CDy5 or 0.01 to 10 μM AC inhibitor. For vehicle control, DMSO was added to a volume of 0.1%. The IC50 values were calculated using GraphPad Prism software.
Ceranib-2 was developed as a ceramidase inhibitor by screening ˜50,000 small molecules and chemical optimization of a lead compound. It inhibits cancer cell growth in vivo as well as in vitro (21).

[2] = tested on: dissociated neurosphere cells; assay: Cytotoxicity assay: number of neurospheres grown in the presence of CDy5; settings: for number of neurospheres: vehicle control 189±40
Procedure: as §1
(§2) Whether CDy5 exerts adverse effects on proliferation and differentiation of neural stem cells was also assessed using a neurosphere assay and multipotency test. For cytotoxicity assay, dissociated neurosphere cells were plated in triplicate in 6-well culture plates at a density of 1,000 cells per well and cultured in the presence of 2 μM or 4 μM CDy5. For vehicle control, 0.1% DMSO was added. After six days, the number of neurospheres was determined.

neurospheres [3] = assay: Multipotency test of neurospheres generated in the presence of CDy5; settings: neurospheres generated in the presence of CDy5, differentiated in 5% FBS
Procedure: as §2
The single neurospheres generated in the presence of CDy5 and normal medium were then plated onto glass coverslips coated with laminin and poly-L-lysine, cultured in medium containing 5% fetal bovine serum and allowed to undergo differentiation. The differentiated cells were immunostained using antibodies raised against markers of astrocyte, neuron and oligodendrocyte to classify the neurospheres into uni-, bi- and tri-potent depending on the number of positively stained cell types. The control group contained 55±6% unipotent neurospheres, 29±3% bipotent neurospheres and 16±3% tripotent neurospheres. The CDy5 group contained 49±1% unipotent neurospheres, 31±4% bipotent neurospheres and 20±3% tripotent neurospheres. These are very similar ratios of differentiation potential of neurospheres between control and CDy5 groups.

neurosphere cells = assay: Neurosphere assay of FACS-sorted CDy5bright and CDy5dim cells; settings: FACS-sorted cells, 3,000 cells per well, six days of culture
Procedure: The method of detecting a stem cell in a sample can further comprise distinguishing between a neural stem cell and a differentiated neural cell in the sample. For example, when a mouse neurosphere was treated with CDy5, cytoplasmic staining of a distinct cell population within the neurosphere was observed (FIG. 1). The so-called CDy5^bright cells, those visible in the right panel of FIG. 1, emitted a signal that was substantially greater than the signal emitted by the so-called CDy5^dim cells. […] In the experiment described above, a cell was considered to be a CDy5^dim cell if no signal could be detected by fluorescence microscopy, or the signal detected was not substantially greater than background signal.
Dissociated neurosphere cells were cultured in a complete neurosphere culture medium containing 2 μM CDy5 for six days. They were dissociated for single cell imaging, live cell time-lapse imaging and clonal neurosphere imaging. […]
To examine the relationship between stemness and CDy5 staining, CDy5^bright and CDy5^dim neurosphere cells were sorted and collected by FACS and separately resuspended in neurosphere culture medium and plated in triplicate in […] culture plates at a density of 3,000 cells per well. […] After six days of culture, the number of neurospheres was counted manually under a microscope.

neurospheres [4] = assay: Differentiation potential of neurospheres generated from CDy5bright and CDy5dim cells; settings: mean±SD of duplicates
Procedure: Single neurospheres were plated onto glass coverslips coated with laminin and poly-L-lysine and cultured in bFGF/EGF-depleted neurosphere culture medium containing 5% fetal bovine serum. The differentiated cells were fixed with 4% paraformaldehyde and stained using primary antibodies: Tuj1 (Covance), glial fibrillary acidic protein (GFAP) (Dako), and O4 (Millipore), and appropriate secondary antibodies: Alexa Fluor 488 goat anti-mouse, Alexa Fluor 594 goat anti-mouse and Alexa Fluor 647 donkey anti-rabbit (Life Technologies), respectively. Tuj1 was used as a marker for neurons, GFAP was used as a marker for astrocytes and 04 was used as a marker for oligodendrocytes.
When the neurospheres were randomly differentiated in a medium containing only FBS, and immunostained against astrocyte, neuron and oligodendrocyte markers as described above, more numbers of neurospheres generated from CDy5^bright cells differentiated into all three types of cells than those from CDy5^dim cells. The CDy5^bright cells differentiated into 30±4% uni-potent cells, 26±1 bi-potent cells and 44±3 tri-potent cells. The CDy5^dim cells differentiated into 47±6 uni-potent cells, 22±1 bi-potent cells and 31±7 tri-potent cells. Data represent mean±standard deviation (SD) of duplicates.

neurospheres [5] = assay: Dye retention in stained neurospheres after paraformaldehyde fixation and methanol extraction; settings: 4% paraformaldehyde fixation followed by absolute methanol
From the text: To determine if CDy5 forms a covalent bond with a protein, neurospheres stained with CDy5 and Hoechst 33342 were fixed using 4% paraformaldehyde followed by absolute methanol, which extracts organic dyes bound to their targets by noncovalent bonding. Both CDy5 and Hoechst signals were detected when observed after fixation with paraformaldehyde.

[6] = neurospheres from CDy5bright cells
[7] = neurospheres from CDy5dim cells

## COc1ccc(/C=C/C(=O)c2c(-c3ccccc3)c3ccccc3[nH]c2=O)cc1 [Ceranib-2]
[1]
  IC50: 780 nM

## CN(CCNC(=O)CCl)c1ccc2c(-c3cccc(CN4CCOCC4)c3)c3ccc(=N)cc-3oc2c1 [CDy5]
[2]; 2 μM and 4 μM CDy5, six days of culture
  number of neurospheres compared to vehicle-added control group: not significantly different
[2]; medium containing 2 μM CDy5
  number of neurospheres: 229±72
[2]; medium containing 4 μM CDy5
  number of neurospheres: 228±83
Neurospheres [3]; control 16±3%
  tripotent neurospheres: 20±3%
Neurospheres [3]; control 29±3%
  bipotent neurospheres: 31±4%
Neurospheres [3]; control 55±6%
  unipotent neurospheres: 49±1%
Neurosphere cells
  times more neurospheres from CDy5bright cells than from CDy5dim cells: more than 10 times
Neurospheres [4]; [6]
  bi-potent: 26±1%
  tri-potent: 44±3%
  uni-potent: 30±4%
Neurospheres [4]; [7]
  bi-potent: 22±1%
  tri-potent: 31±7%
  uni-potent: 47±6%

## CCCCCCNC(=O)n1cc(F)c(=O)[nH]c1=O [Carmofur]
[1]; Mus musculus
  IC50: 920 nM

## CCOc1ccc(-c2nc3ccc(-c4nc5ccc(N6CCN(C)CC6)cc5[nH]4)cc3[nH]2)cc1 [Hoechst 33342]
Neurospheres [5]
  dye signal following methanol treatment: almost completely washed out

From US20150293109A1, “Fluorescent Chemical Dye for Visualization of Neural Stem Cell Symmetric and Asymmetric Division” (NATIONAL UNIVERSITY OF SINGAPORE, priority 2012, published 2015)
